Laboratory results from US20080249165A1, “Glycosides and Salts Thereof” (Ivax Drug Research Institute Ltd., priority 2004, published 2008).
Where a name gives a salt, the structure may show the parent alone. Read-outs that look alike come from different tables or passages of the source.

What was measured:
[1] = system: BN-rats; test: Airways' hyper-responsiveness ex vivo: tracheal contraction to acetylcholine after antigen challenge and intratracheal pretreatment (Model 1); assay type: in vivo, rat; conditions: for MAX** Contraction at maximal Ach concentration relative to control (mean ± SEM) / ED50* log M acetylcholine (Ach), causing 50% contraction relative to control (mean ± SEM): trachea 48 h post challenge; for ED50* log M acetylcholine (Ach), causing 50% contraction relative to control (mean ± SEM): sensitized BN rats
Experimental: Brown Norway (BN) rats were actively sensitized to ovalbumin (OA) by a subcutaneous injection of 0.5 ml of OA/Al(OH)3 gel mixture (2 mg OA+10 g Al(OH)3/100 ml saline) on day 1 with subsequent subcutaneous injections (10 mg OA+10 g Al(OH)3/100 ml saline) given on days 14 and 21. On day 28, animals received the compound described in the first example intratracheally (0.001; 0.01; 0.1 or 1.0 mg/kg dose) 2 hours before antigen challenge. Antigen challenge was performed by inhalation of nebulised ovalbumin (1% antigen solution administered in a TSE inhalation system for 1 hour). Animals were sacrificed 48 hours post antigen challenge wherein the tracheas were removed to an organ bath. Dissected tracheas were allowed to equilibrate for 30 minutes before measuring tracheal spasmogenic response curves to acetylcholine (Ach).

[2] = system: BN rats; test: Allergen stimulated mucus production of airways epithelial cells (Model 2); assay type: in vivo, rat; conditions: for number of PAS(+) cells as percent of total number of cells (average ± SEM): lungs 48 hours after challenge
Experimental: Sensitized BN rats were treated intratracheally with varying (0.001-1.0 mg/kg) dose of compound described in the first example, two hours before antigenic challenge, using a similar protocol described in Model 1. Lungs were collected 48 hours after challenge and were fixed in 8% phosphate buffered formaldehyde. Samples were then processed for histochemistry routinely. 5 μm thick sections were stained with periodic-acid-Schiff (PAS) reagents and were counterstained with haematoxylin-eosine. On the sections each epithelial cells of the airways were counted in the whole preparation at a magnification of 400×. The number of PAS(+) [mucus producing] epithelial cells was expressed as the ratio of the total number of epithelial cells.

[3] = system: BN rats; test: Extent of perivascular oedema developed in asthmatic lung tissue (Model 3); assay type: in vivo, rat; conditions: for Oedema* area of oedema relative to area of vasculature (average ± SEM): lungs 48 hours after challenge
Experimental: Sensitized BN rats were treated intratracheally with varying (0.001-1.0 mg/kg) dose of compound described in the first example, two hours before antigenic challenge, using a similar protocol described in Model 1. Lungs were collected 48 hours after challenge and were fixed in 8% phosphate buffered formaldehyde. Samples were then processed for histochemistry routinely. 5 μm thick sections were stained with periodic-acid-Schiff (PAS) reagents and were counterstained with haematoxylin-eosine. On the sections the area of the connective tissue around the vasculare was determined and expressed as a ratio of the area of the corresponding blood vessel itself.

[4] = system: BN rats; test: Extent of peribronchial eosinophilia developed in asthmatic lung tissue (Model 4); assay type: in vivo, rat; conditions: for peribronchial eosinophil number per visual field (average ± SEM): lungs 48 hours after challenge
Experimental: Sensitized BN rats were treated intratracheally with varying (0.001-1.0 mg/kg) dose of compound described in the first example, two hours before antigenic challenge, using a similar protocol described in Model 1. Lungs were collected 48 hours after challenge and were fixed in 8% phosphate buffered formaldehyde. Samples were then processed for histochemistry routinely. 5 μm thick sections were stained with May Gruenvald Giemsa and the number of eosinophils, situated peribronchially, was determined.

[5] = biological target: T1, IP-3 receptor (Rattus norvegicus, UniProt P29994); test: IP-3 receptor antagonistic effect: inhibition of IP3 binding in rat cerebellum membrane preparations (Model 5)
T1 construct: from tissue; host or cells: rat cerebellum (microsomal membrane preparation)
T1 sequence (P29994 whole entry): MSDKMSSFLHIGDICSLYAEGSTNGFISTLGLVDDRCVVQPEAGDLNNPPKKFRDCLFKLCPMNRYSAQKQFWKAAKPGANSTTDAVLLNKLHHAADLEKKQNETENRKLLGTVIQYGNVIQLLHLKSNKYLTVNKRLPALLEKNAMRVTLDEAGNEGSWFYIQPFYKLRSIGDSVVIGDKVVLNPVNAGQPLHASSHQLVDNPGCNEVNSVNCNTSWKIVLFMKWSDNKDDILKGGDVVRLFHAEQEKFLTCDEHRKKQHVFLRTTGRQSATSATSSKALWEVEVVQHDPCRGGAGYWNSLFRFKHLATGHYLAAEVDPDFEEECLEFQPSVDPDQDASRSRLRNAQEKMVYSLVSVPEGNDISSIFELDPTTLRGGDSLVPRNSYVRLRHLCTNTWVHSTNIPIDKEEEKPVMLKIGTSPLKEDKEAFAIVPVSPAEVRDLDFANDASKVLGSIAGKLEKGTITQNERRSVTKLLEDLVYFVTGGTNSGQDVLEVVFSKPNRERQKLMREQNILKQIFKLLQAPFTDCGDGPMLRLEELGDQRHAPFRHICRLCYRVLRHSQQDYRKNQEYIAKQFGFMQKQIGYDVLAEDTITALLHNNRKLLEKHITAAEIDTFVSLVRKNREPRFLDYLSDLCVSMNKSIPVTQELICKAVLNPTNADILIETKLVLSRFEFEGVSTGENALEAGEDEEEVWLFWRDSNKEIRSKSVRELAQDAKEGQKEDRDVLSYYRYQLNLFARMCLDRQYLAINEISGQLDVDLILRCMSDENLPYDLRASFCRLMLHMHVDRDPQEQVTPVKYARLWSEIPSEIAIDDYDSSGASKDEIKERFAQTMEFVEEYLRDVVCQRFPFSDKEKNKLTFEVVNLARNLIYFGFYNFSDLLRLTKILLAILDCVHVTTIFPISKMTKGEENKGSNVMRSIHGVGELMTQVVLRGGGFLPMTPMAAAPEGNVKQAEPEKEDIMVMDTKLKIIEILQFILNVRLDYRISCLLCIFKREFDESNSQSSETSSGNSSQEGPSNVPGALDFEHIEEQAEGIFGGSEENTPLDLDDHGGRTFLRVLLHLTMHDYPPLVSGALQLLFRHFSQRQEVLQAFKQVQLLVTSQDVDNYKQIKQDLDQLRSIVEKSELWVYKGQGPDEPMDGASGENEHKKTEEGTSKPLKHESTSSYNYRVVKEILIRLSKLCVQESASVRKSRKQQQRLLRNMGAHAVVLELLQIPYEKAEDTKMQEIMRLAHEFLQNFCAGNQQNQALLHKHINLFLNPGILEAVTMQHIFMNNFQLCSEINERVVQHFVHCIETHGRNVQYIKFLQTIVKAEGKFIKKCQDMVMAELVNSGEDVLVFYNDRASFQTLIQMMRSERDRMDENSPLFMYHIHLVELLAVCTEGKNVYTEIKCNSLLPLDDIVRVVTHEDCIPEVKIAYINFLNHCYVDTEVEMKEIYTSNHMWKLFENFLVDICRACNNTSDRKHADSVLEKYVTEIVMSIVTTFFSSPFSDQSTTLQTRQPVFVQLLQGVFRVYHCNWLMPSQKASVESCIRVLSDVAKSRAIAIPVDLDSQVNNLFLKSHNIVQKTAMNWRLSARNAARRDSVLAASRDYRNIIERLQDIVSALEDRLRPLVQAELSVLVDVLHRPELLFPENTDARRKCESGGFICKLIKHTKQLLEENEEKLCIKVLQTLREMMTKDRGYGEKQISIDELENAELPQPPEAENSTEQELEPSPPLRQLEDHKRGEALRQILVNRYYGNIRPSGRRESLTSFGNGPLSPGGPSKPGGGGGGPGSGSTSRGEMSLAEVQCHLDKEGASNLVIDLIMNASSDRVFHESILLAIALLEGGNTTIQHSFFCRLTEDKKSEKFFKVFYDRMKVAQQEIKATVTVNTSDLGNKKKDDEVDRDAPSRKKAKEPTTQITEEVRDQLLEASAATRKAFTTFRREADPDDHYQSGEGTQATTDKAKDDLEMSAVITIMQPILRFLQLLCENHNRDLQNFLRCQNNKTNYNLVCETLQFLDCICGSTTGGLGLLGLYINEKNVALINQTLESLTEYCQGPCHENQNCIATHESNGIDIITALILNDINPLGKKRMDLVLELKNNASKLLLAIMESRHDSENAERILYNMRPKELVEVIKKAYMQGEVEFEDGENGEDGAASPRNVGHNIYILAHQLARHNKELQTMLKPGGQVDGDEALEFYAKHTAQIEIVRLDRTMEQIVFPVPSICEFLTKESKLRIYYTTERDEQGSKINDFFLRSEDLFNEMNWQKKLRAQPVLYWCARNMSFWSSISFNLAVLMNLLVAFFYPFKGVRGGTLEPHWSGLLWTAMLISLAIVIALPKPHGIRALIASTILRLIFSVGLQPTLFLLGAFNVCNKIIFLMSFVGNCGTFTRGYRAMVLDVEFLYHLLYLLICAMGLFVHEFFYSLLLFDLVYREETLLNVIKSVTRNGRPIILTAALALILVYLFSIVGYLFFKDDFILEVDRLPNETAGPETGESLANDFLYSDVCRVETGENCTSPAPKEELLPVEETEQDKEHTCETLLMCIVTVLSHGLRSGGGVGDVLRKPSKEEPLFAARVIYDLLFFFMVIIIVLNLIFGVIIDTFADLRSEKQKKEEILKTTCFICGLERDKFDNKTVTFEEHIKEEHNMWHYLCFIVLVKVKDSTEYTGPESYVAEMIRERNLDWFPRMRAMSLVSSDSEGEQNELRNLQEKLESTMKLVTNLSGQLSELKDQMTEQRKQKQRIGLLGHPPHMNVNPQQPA
Experimental: The polysulfated glycosides of the present invention, depending on their chemical structure, inhibit the binding of inositol-1,4,5-trisphosphate (IP3) to its receptor in microsomal membrane preparations. As IP3 is a messenger molecule playing distinguished role in the activation of different cells, interfering with this function can explain the anti-asthmatic effect of these polysulfated glycosides. The IP3 antagonist effect of the polysulfated glycosides was determined using rat cerebellum membrane preparations according to Worley et al. (JBC 262, 12132, 1987).

[6] = 0.001 mg/kg intratracheally 2 hours before antigen challenge
[7] = 0.1 mg/kg intratracheally 2 hours before antigen challenge
[8] = 0.001 mg/kg intratracheally two hours before antigenic challenge
[9] = 0.1 mg/kg intratracheally two hours before antigenic challenge
[10] = read-out: IC50 (μg/ml) Average ± SEM (n) (converted)

Row | IC50 ([5]; read-out: Average IC50) [µM] | IC50 [5, 10] [µM] | Compound | also measured
1 | 1.49 | 1.75 | O=S(=O)(O)OCC1OC(COS(=O)(=O)O)C(OS(=O)(=O)O)C1OC1OC(COS(=O)(=O)O)C(OS(=O)(=O)O)C(OS(=O)(=O)O)C1OS(=O)(=O)O [Example 1, 2,5-Anhydro-1,4,6-tri-O-sulfato-3-O-(2,3,4,6-tetra-O-sulfato-α-L-idopyranosyl)-D-mannitol hepta sodium salt] | MAX** Contraction at maximal Ach concentration relative to control (mean ± SEM) [1, 6]: 166 ± 41; ED50* log M acetylcholine (Ach), causing 50% contraction relative to control (mean ± SEM) [1, 6]: 5.78 ± 0.30 log M; MAX** Contraction at maximal Ach concentration relative to control (mean ± SEM) [1, 7]: 99 ± 16; ED50* log M acetylcholine (Ach), causing 50% contraction relative to control (mean ± SEM) [1, 7]: 4.70 ± 0.37 log M; tracheal hyper-reactivity to acetylcholine after ovalbumin challenge (in words) ([1]; dose of 0.1 mg/kg, 48 h after antigen challenge): brought this elevation back to control level; number of PAS(+) cells as percent of total number of cells (average ± SEM) [2, 8]: 35.2 ± 3.5%; number of PAS(+) cells as percent of total number of cells (average ± SEM) [2, 9]: 17.5 ± 2.4%; number of PAS(+), mucus producing cells (in words) ([2]; dose of 0.1 mg/kg): significantly decreased; Oedema* area of oedema relative to area of vasculature (average ± SEM) [3, 8]: 41 ± 6; Oedema* area of oedema relative to area of vasculature (average ± SEM) [3, 9]: 53 ± 6; extent of aedema around the vasculature (in words) ([3]; smallest dose): significantly decreased; peribronchial eosinophil number per visual field (average ± SEM) [4, 8]: 74 ± 2; peribronchial eosinophil number per visual field (average ± SEM) [4, 9]: 25 ± 2; number of peribronchially situated eosinophils in the lung (in words) ([4]; higher doses): the decrease become statistically significant; number of peribronchially situated eosinophils in the lung (in words) ([4]; smallest dose): decreases the extent of it
2 | 4.81 | 5.65 | O=S(=O)(O)OCC1OC(COS(=O)(=O)O)C(OS(=O)(=O)O)C1OC1OC(COS(=O)(=O)O)C(OS(=O)(=O)O)C(OS(=O)(=O)O)C1OS(=O)(=O)O [Example 2, 2,5-Anhydro-1,4,6-tri-O-sulfato-3-O-(2,3,4,6-tetra-O-sulfato-α-L-idopyranosyl)-D-mannitol hepta potassium salt] | –
3 | 1.39 | 1.21 | O=S(=O)(O)OC[C@H]1O[C@@H](O[C@H]2[C@H](OS(=O)(=O)O)[C@@H](COS(=O)(=O)O)O[C@@H]2COS(=O)(=O)O)[C@H](OS(=O)(=O)O)[C@@H](OS(=O)(=O)O)[C@@H]1OS(=O)(=O)O [Example 3, 2,5-Anhydro-1,4,6-tri-O-sulfato-3-O-(2,3,4,6-tetra-O-sulfato-β-D-glucopyranosyl)-D-mannitol hepta sodium salt] | –
4 | 20.3 | 26.3 | O=S(=O)(O)OC[C@H]1O[C@H](COS(=O)(=O)O)[C@@H](OS(=O)(=O)O)[C@@H]1O[C@@H]1OC[C@H](OS(=O)(=O)O)[C@H](OS(=O)(=O)O)[C@H]1OS(=O)(=O)O [Example 4, 2,5-Anhydro-1,4,6-tri-O-sulfato-3-O-(2,3,4-tri-O-sulfato-α-L-arabinopyranosyl)-D-mannitol hexa potassium salt] | –
5 | 26.5 | 34.3 | O=S(=O)(O)OC[C@H]1O[C@H](COS(=O)(=O)O)[C@@H](OS(=O)(=O)O)[C@@H]1O[C@H]1OC[C@@H](OS(=O)(=O)O)[C@@H](OS(=O)(=O)O)[C@@H]1OS(=O)(=O)O [Example 5, 2,5-Anhydro-1,4,6-tri-O-sulfato-3-O-(2,3,4-tri-O-sulfato-α-D-arabinopyranosyl)-D-mannitol hexa potassium salt] | –
6 | 0.222 | 0.287 | O=S(=O)(O)OC[C@H]1O[C@@H](O[C@H]2[C@H](OS(=O)(=O)O)[C@@H](COS(=O)(=O)O)O[C@@H]2COS(=O)(=O)O)[C@H](OS(=O)(=O)O)[C@@H](OS(=O)(=O)O)[C@@H]1O[C@H]1O[C@H](COS(=O)(=O)O)[C@@H](OS(=O)(=O)O)[C@H](OS(=O)(=O)O)[C@H]1OS(=O)(=O)O [Example 6, 2,5-Anhydro-1,4,6-tri-O-sulfato-3-O-(2,3,6,2′,3′,4′,6′-hepta-O-sulfato-β-D-maltosyl)-D-mannitol deca potassium salt] | –
7 | 0.24 | 0.31 | O=S(=O)(O)OC[C@H]1O[C@@H](OC[C@H]2O[C@@H](O[C@H]3[C@H](OS(=O)(=O)O)[C@@H](COS(=O)(=O)O)O[C@@H]3COS(=O)(=O)O)[C@H](OS(=O)(=O)O)[C@@H](OS(=O)(=O)O)[C@@H]2OS(=O)(=O)O)[C@H](OS(=O)(=O)O)[C@@H](OS(=O)(=O)O)[C@@H]1OS(=O)(=O)O [Example 7, 2,5-Anhydro-1,4,6-tri-O-sulfato-3-O-[6-O-(2,3,4,6-tetra-O-sulfato-β-D-glucopyranosido)-2,3,4-tetra-O-sulfato-β-D-glucopyranosyl]-D-mannitol deca potassium salt] | –
8 | 0.539 | 0.698 | O=S(=O)(O)OC[C@H]1O[C@@H](OC[C@H]2O[C@H](CO[C@@H]3O[C@H](COS(=O)(=O)O)[C@@H](OS(=O)(=O)O)[C@H](OS(=O)(=O)O)[C@H]3OS(=O)(=O)O)[C@@H](OS(=O)(=O)O)[C@@H]2OS(=O)(=O)O)[C@H](OS(=O)(=O)O)[C@@H](OS(=O)(=O)O)[C@@H]1OS(=O)(=O)O [Example 8, 2,5-Anhydro-3,4-di-O-sulfato-1,6-bis-O-(2,3,4,6-tetra-O-sulfato-β-D-glucopyranosyl)-D-mannitol deca potassium salt] | –
9 | 0.115 | 0.148 | O=S(=O)(O)OCC1OC(OCC2OC(OCC3OC(COC4OC(COC5OC(COS(=O)(=O)O)C(OS(=O)(=O)O)C(OS(=O)(=O)O)C5OS(=O)(=O)O)C(OS(=O)(=O)O)C(OS(=O)(=O)O)C4OS(=O)(=O)O)C(OS(=O)(=O)O)C3OS(=O)(=O)O)C(OS(=O)(=O)O)C(OS(=O)(=O)O)C2OS(=O)(=O)O)C(OS(=O)(=O)O)C(OS(=O)(=O)O)C1OS(=O)(=O)O [Example 9, 2,5-Anhydro-3,4-di-O-sulfato-1,6-bis-[(6-O-2,3,4,6-tetra-O-sulfato-β-D-glucopyranosido)-2,3,4-tri-O-sulfato-β-D-glucopyranosyl]-D-mannitol hexadeca potassium salt] | –
10 | 0.137 | 0.177 | O=S(=O)(O)OC[C@H]1O[C@@H](OC[C@H]2O[C@H](CO[C@@H]3O[C@H](COS(=O)(=O)O)[C@@H](OS(=O)(=O)O)[C@H](OS(=O)(=O)O)[C@H]3OS(=O)(=O)O)[C@@H](OS(=O)(=O)O)[C@@H]2O[C@@H]2O[C@H](COS(=O)(=O)O)[C@@H](OS(=O)(=O)O)[C@H](OS(=O)(=O)O)[C@H]2OS(=O)(=O)O)[C@H](OS(=O)(=O)O)[C@@H](OS(=O)(=O)O)[C@@H]1OS(=O)(=O)O [Example 10, 2,5-Anhydro-4-O-sulfato-1,3,6-tris-O-(2,3,4,6-tetra-O-sulfato-β-D-glucopyranosyl)-D-mannitol trideca potassium salt] | –
